Patent EP1466613A1, “Compositions for mucosal and oral administration comprising hCG fragments” (Biotempt B.V., priority 2003, dated 2004)
Ends that are not written are not given here.

Test system: NF-kB
Experiment: EMSA of nuclear extracts for basal and LPS induced NF-kB translocation, RAW 264.7 mouse macrophages (second experiment)
Assay type: cell-based
Conditions: RAW264.7 cells, LPS in combination with peptide, 30 minutes incubation
Description: The transcription factor NF-kB participates in the transcriptional regulation of a variety of genes. Nuclear protein extracts were prepared from LPS and peptide treated RAW264.7 cells or from LPS treated RAW264.7 cells. In order to determine whether the peptide modulates the translocation of NF-kB into the nucleus, on these extracts EMSA was performed. Here we see that indeed peptides are able to modulate the translocation of NF-kB since the amount of labeled oligonucleotide for NF-kB is reduced. […] RAW 264.7 mouse macrophages were cultured in DMEM, containing 10% or 2% FBS, penicillin, streptomycin and glutamine, at 37 °C, 5% CO2. Cells were seeded in a 12-wells plate (3x10^6 cells/ml) in a total volume of 1 ml for 2hours and then stimulated with LPS (E. coli 026:B6; Difco Laboratories, Detroit, MI, USA) and/or gene-regulatory peptide(1 microgr/ml). After 30 minutes of incubation plates were centrifuged and cells were collected for nuclear extracts. Nuclear extracts and EMSA were prepared according to Schreiber et al. Cells were collected in a tube and centrifuged for 5 minutes at 2000 rpm (rounds per minute) at 4°C (Universal 30 RF, Hettich Zentrifuges). […]

circular LQGVLPALPQVVC (also: circular, ring type not given here)
LPS induced translocation of NF-kB: inhibition of LPS induced translocation of NF-kB
